According to patent US20200032313A1 (SANYO CHEMICAL INDUSTRIES, LTD., priority 2017, published 2020):
Like-named read-outs stand apart in the source and are kept apart here.

What was measured:
[1] = system: luciferase-expressing Pichia pastoris; type: cell-based; conditions: 8 hours
Procedure: Transformation was performed using Pichia pastoris distributed by Biotechnology Center, National Institute of Technology and Evaluation, whereby luciferase-expressing microorganisms were produced. A vector pPICZ a (Thermo Fisher Scientific) was digested with XhoI and XbaI, and a synthetic (synthesized by Thermo Fisher Scientific on commission) luciferase gene having an XhoI cut site at one end and an XbaI cut site at the other end was inserted into the vector. The microorganisms were transformed by the luciferase gene-inserted pPICZ a according to the method described in an instruction manual of pPICZ a. The luciferase-expressing microorganisms were inoculated using a platinum loop into BMGY broth, and were shake-cultured at 200 rpm at 30° C. for 15 hours. Then, the thus-obtained broth was resuspended in 125-ml BMGY broth (yeast extract 1 wt % (Difco), bacto peptone 2 wt % (Difco), yeast nitrogen base w/o amino acid 1.34 wt % (Difco), glucose 2 wt %, and 100 mM potassium hydrogen phosphate; pH: 6.0) to a final OD of 0.1 OD/ml. Further, the resuspended broth was continued to be shake-cultured at 1100 rpm at 30° C. for about 17 hours until OD was 20 to 30. When OD was 20 to 30, the broth was centrifuged (1500 g, 10 min), and resuspended in 125-ml BMMY broth, followed by culturing at 1100 rpm at 30° C. for 2 hours.
(§1) Two hours later, the surfactant described in Table 2 was added to the broth in the amount (wt %) described in Table 2, and the broth was cultured at 1100 rpm at 30° C. for 8 hours. Subsequently, the broth was sampled for measuring the optical density (optical density at the end of culturing) and for measuring the secretion efficiency. Then, these samples were subjected to centrifugation using a centrifuge to separate bacteria and the supernatant from the broth. Then, the supernatant and the bacteria were collected.
(§2) The broth obtained in each of Examples 1 to 22 and Comparative Examples 1 and 2 was 10 to 1000-fold diluted in a 0.2 M Tris-HCl buffer (pH 7.4), and 20 μl of the dilution was mixed with 60 μl of a luciferin solution described below to obtain a sample. The emission intensity of the sample was measured using a luminometer under the following conditions, and the measured emission intensity was substituted into the following formula. The resulting value was regarded as the luciferase activity of the secreted and produced useful substance.
(§3) Luminometer: “Glomax Navigator” available from Promega Corporation Luciferin solution: product of New England Biolabs Japan Inc. Measurement temperature: 25° C. Detector: emission detector Detection wavelength: 350 to 700 nm
(§4) (Luciferase activity of secreted and produced useful substance)=(Emission intensity)×dilution factor/(optical density at the end of culturing)
(§5) The bacteria obtained in each of Examples 1 to 22 and Comparative Examples 1 and 2 were mixed with a 0.2 M Tris-HCl buffer (pH 7.4) in an amount of 200 μl that is equal to the amount of the removed supernatant, followed by centrifugation, whereby the bacteria were washed. The washed bacteria were resuspended in a 0.2 M Tris-HCl buffer (pH 7.4) in an amount of 200 μl that is equal to the amount of the washed supernatant, and 10 to 1000-fold diluted in a 0.2 M Tris-HCl buffer (pH 7.4). The resulting dilution was used as a sample for measuring the luciferase activity on the bacterial surface.
Then, 20 μl of the sample for measuring the luciferase activity on the bacterial surface was mixed with 60 μl of the luciferin solution to obtain a sample. The emission intensity of the sample was measured under the same conditions as for “Measurement of luciferase activity of secreted and produced useful substance”, and the measured emission intensity was substituted into the following formula. The resulting value was regarded as the luciferase activity of the useful substance remaining on the bacterial surface. […]

[2] = system: luciferase-expressing Saccharomyces cerevisiae; type: cell-based; conditions: S. cerevisiae, 8 hours
Procedure: Transformation was performed using Saccharomyces cerevisiae distributed by Biotechnology Center, National Institute of Technology and Evaluation, whereby luciferase-expressing microorganisms were produced. A vector pYES2 (Thermo Fisher Scientific) was digested with HindIII and XbaI, and a synthetic (synthesized by Thermo Fisher Scientific on commission) a factor-luciferase gene having a HindIII cut site at one end and an XbaI cut site at the other end was inserted into the vector. The microorganisms were transformed by the a factor-luciferase gene-inserted pYES2 according to the method described in an instruction manual of pYES2. The luciferase-expressing microorganisms were inoculated using a platinum loop into YPD broth (yeast extract 1 wt % (Difco), bacto peptone 2 wt % (Difco), and glucose 2 wt %) and were shake-cultured at 200 rpm at 30° C. for 15 hours. Then, the thus-obtained broth was resuspended in 125-ml YPD broth (containing 100 mM potassium hydrogen phosphate buffer; pH: 6) to a final optical density (hereinafter sometimes abbreviated as “OD”) of 0.1 OD/ml.
Further, the resuspended broth was continued to be shake-cultured at 1100 rpm at 30° C. for about 17 hours until OD was 20 to 30. When OD was 20 to 30, the broth was centrifuged (1500 g, 10 min), and resuspended in 125-ml galactose-inducing broth (the YPD broth containing 100 mM potassium phosphate buffer and also containing 2% galactose instead of glucose; pH: 6), followed by culturing at 1100 rpm at 30° C. for 2 hours.
as §1, with “Subsequently,” for “Two hours later,”, “1” for “2”, “1,” for “2,”
as §2, §3, §4, §5
Then, 20 μl of the sample for measuring the luciferase activity on the bacterial surface was mixed with 60 μl of the luciferin solution to obtain a sample. The emission intensity of the sample was measured under the same conditions as for “Measurement of luciferase activity of secreted and produced useful substance”, and the measured emission intensity was substituted into the following formula. […]

[3] = surfactant 0.03 wt % of broth, Examples 13, 16-22
[4] = surfactant 0.03 wt % of broth, Examples 2, 5-11

Compound: CCCCCCCCCCCC[N+](C)(C)CCCS(=O)(=O)O.[OH-] [Surfactant (A3-3), dodecyldimethyl(3-sulfopropyl)ammonium hydroxide]
- Secretion efficiency (%) [1, 3]: 75%
- Secretion efficiency (%) [2, 4]: 61%

Compound: sodium (2-dodecylamino)ethanesulfonate [Surfactant (A3-1)]
- Secretion efficiency (%) [1, 3]: 62%
- Secretion efficiency (%) [2, 4]: 60%

Compound: CCCCCCCCCCCC[N+](C)(C)CC(=O)[O-] [Surfactant (A3-5), betaine lauryldimethylaminoacetate]
- Secretion efficiency (%) [1, 3]: 90%
- Secretion efficiency (%) [2, 4]: 56%

Compound: sodium polyoxyethylene (average 3 mol adduct) lauryl ether acetate [Surfactant (A1-2)]
- Secretion efficiency (%) [1, 3]: 64%
- Secretion efficiency (%) [2, 4]: 58%

Compound: CCCCCCCCCCCC[N+](C)(C)C.[Cl-] [Surfactant (A2-1), lauryl trimethyl ammonium chloride]
- Secretion efficiency (%) [1, 3]: 88%
- Secretion efficiency (%) [2, 4]: 52%

Compound: sodium polyoxyethylene (average 2.5 mol adduct) lauryl ether sulfate [Surfactant (A1-1)]
- Secretion efficiency (%) [1, 3]: 66%
- Secretion efficiency (%) [2, 4]: 66%

Compound: CCCCCCCCCCCCNCCC(=O)O
- Secretion efficiency (%) ([1]; surfactant 0.003 wt % of broth, Example 12): 64%
- Secretion efficiency (%) [1, 3]: 80%
- Secretion efficiency (%) ([1]; surfactant 0.3 wt % of broth, Example 14): 84%
- Secretion efficiency (%) ([1]; surfactant 3 wt % of broth, Example 15): 67%
- Secretion efficiency (%) ([2]; surfactant 0.003 wt % of broth, Example 1): 56%
- Secretion efficiency (%) [2, 4]: 61%
- Secretion efficiency (%) ([2]; surfactant 0.3 wt % of broth, Example 3): 65%
- Secretion efficiency (%) ([2]; surfactant 3 wt % of broth, Example 4): 75%

Compound: CCCCCCCCCCCCCCCCOP(=O)([O-])OCC[N+](C)(C)C [Surfactant (A3-4), miltefosine, reference compound]
- Secretion efficiency (%) [1, 3]: 66%
- Secretion efficiency (%) [2, 4]: 59%
